Results reported in patent US5591438A, “Natamycin recovery” (Bio-Technical Resources L.P., priority 1994, dated 1997).
In brackets after ≈: the same amount, converted by molar mass.

How the values were obtained:
Type in all cases: physicochemical
[1] = Ester formation in methanol with 40 g/L CaCl2 (stability of natamycin); settings: for Methyl Ester (% of product) / Natamycin (concentration in methanol with CaCl2): methanol with 40 g/L CaCl2
Protocol: This process can be run at pH 2-9, preferably at pH 6-8. If the pH is low, shorter extraction times should be used because acidic conditions promote natamycin methyl ester formation. (See Table 4) If the pH is above 6, ester formation is slower. Any reasonable temperature may be used (i.e. 20°-30° C.).
Ester Formation in Methanol with 40 g/L CaCl2

physchem [2] = assay: physchem
From the text: Since water content of the extraction medium depends on the amount of water in the feed stream, it is desirable to remove as much water as possible from the feed stream before Step 1. If the feed stream contains about 70% by volume water, about three times as much methanol is required than when starting with a substantially dry feed stream. If the feed stream contains about 40% by volume water, about twice as much methanol is required.
The pH depends to some extent on the water content of the extraction medium and the yield desired. To obtain a precipitation yield of about 90% or more, the natamycin concentration in the extraction medium should be about 40 g/L. In the absence of water this requires a pH of about 4.5. At about 30% water/70% methanol (by volume) this requires a pH of about 2.5 (Table 2).
Solubility of Natamycin in Methanol and Methanol/Water

physchem [3] = settings: methanol/cacl2, organic solvent or mixture, Solubility of Natamycin in Methanol/CaCl2 Extractant
From the text: To precipitate a high percentage of the natamycin, the water content of the extraction liquor should be increased to at least 50% by volume. Table 3 indicates the solubility of natamycin in a methanol/water/calcium chloride solution as a function of water content.
Solubility of Natamycin in Methanol/CaCl2 *
Extractant at Various Water Concentrations

[4] = Natamycin methyl ester formation in methanol (stability of natamycin in acidified methanol)
Protocol: Formation of natamycin methyl ester, an undesired by-product, depends on the pH, the natamycin-methanol contact time, and the temperature (see Table 1). It is important that this step be carried out at a temperature of about 0°-25° C., since formation of natamycin methyl ester and other undesirable by-products is minimized. The higher the temperature or the longer the contact time, the greater the by-product production at a given pH. To avoid excessive natamycin methyl ester formation at 15°-25° C., short contact times, i.e., 0.5 hr or less, should be used. At about […], the extraction time should not exceed about 1.5 hr. An extraction temperature of about 0°-15° C. is preferred.
Natamycin Methyl Ester Formation in Methanol

Methyl Ester (% of product) ([1]; 5 °C, pH 4.4, 0 hr): 0 % of product
Natamycin (concentration in methanol with CaCl2) ([1]; 5 °C, pH 4.4, 0 hr): 60 g/L
Methyl Ester (% of product) ([1]; 5 °C, pH 4.4, 8 hr): 0.5 % of product
Natamycin (concentration in methanol with CaCl2) ([1]; 5 °C, pH 4.4, 8 hr): 60 g/L
Methyl Ester (% of product) ([1]; 23 °C, pH 4.4, 0 hr): 0 % of product
Natamycin (concentration in methanol with CaCl2) ([1]; 23 °C, pH 4.4, 0 hr): 72 g/L
Methyl Ester (% of product) ([1]; 23 °C, pH 4.4, 6 hr): 5.0 % of product
Natamycin (concentration in methanol with CaCl2) ([1]; 23 °C, pH 4.4, 6 hr): 67 g/L
Methyl Ester (% of product) ([1]; 23 °C, pH 5.3, 0 hr): 0 % of product
Natamycin (concentration in methanol with CaCl2) ([1]; 23 °C, pH 5.3, 0 hr): 51 g/L
Methyl Ester (% of product) ([1]; 23 °C, pH 5.3, 20 hr): 2.4 % of product
Natamycin (concentration in methanol with CaCl2) ([1]; 23 °C, pH 5.3, 20 hr): 48 g/L
Methyl Ester (% of product) ([1]; 23 °C, pH 6.1, 0 hr): 0 % of product
Natamycin (concentration in methanol with CaCl2) ([1]; 23 °C, pH 6.1, 0 hr): 51 g/L
Methyl Ester (% of product) ([1]; 23 °C, pH 6.1, 20 hr): 1.1 % of product
Natamycin (concentration in methanol with CaCl2) ([1]; 23 °C, pH 6.1, 20 hr): 49 g/L
natamycin methyl ester formation ([1]; methanol/CaCl2, pH above 6): slower
solubility in methanol (physchem [2]): excellent solubility
solubility in the extraction medium after acid addition (physchem [2]): highly soluble
solubility of natamycin in the extraction medium (physchem [2]): decreases as the water increases
solubility (physchem [2]; methanol, pH 2, organic solvent or mixture): 94 mg/mL (≈ 141 mM)
solubility (physchem [2]; methanol, pH 3.8, organic solvent or mixture): 78 mg/mL (≈ 117 mM)
solubility (physchem [2]; methanol, pH 4.5, organic solvent or mixture): 50 mg/mL (≈ 75.1 mM)
solubility (physchem [2]; methanol, pH 7, organic solvent or mixture): 6 mg/mL (≈ 9.01 mM)
solubility (physchem [2]; methanol/water, pH 2.4, organic solvent or mixture): 55 mg/mL (≈ 82.6 mM)
solubility (physchem [2]; methanol/water, pH 3.3, organic solvent or mixture): 18 mg/mL (≈ 27 mM)
solubility (physchem [2]; methanol/water, pH 7, organic solvent or mixture): 4 mg/mL (≈ 6.01 mM)
solubility (physchem [3]): 91 mg/mL (≈ 137 mM)
Methyl Ester (% by weight of product) ([4]; 4 °C, pH 2.4, 0 hr): 0.4 % by weight of product
Natamycin (concentration in methanol) ([4]; 4 °C, pH 2.4, 0 hr): 42 g/L
Methyl Ester (% by weight of product) ([4]; 4 °C, pH 2.4, 2 hr): 1.3 % by weight of product
Natamycin (concentration in methanol) ([4]; 4 °C, pH 2.4, 2 hr): 42 g/L
Methyl Ester (% by weight of product) ([4]; 4 °C, pH 2.4, 8.5 hr): 2.7 % by weight of product
Natamycin (concentration in methanol) ([4]; 4 °C, pH 2.4, 8.5 hr): 39 g/L
Methyl Ester (% by weight of product) ([4]; 4 °C, pH 2.4, 19 hr): 5.2 % by weight of product
Natamycin (concentration in methanol) ([4]; 4 °C, pH 2.4, 19 hr): 37 g/L
Methyl Ester (% by weight of product) ([4]; 23 °C, pH 2.4, 0 hr): 0 % by weight of product
Natamycin (concentration in methanol) ([4]; 23 °C, pH 2.4, 0 hr): 44 g/L
Methyl Ester (% by weight of product) ([4]; 23 °C, pH 2.4, 1 hr): 3.9 % by weight of product
Natamycin (concentration in methanol) ([4]; 23 °C, pH 2.4, 1 hr): 42 g/L
Methyl Ester (% by weight of product) ([4]; 23 °C, pH 2.4, 2 hr): 7.3 % by weight of product
Natamycin (concentration in methanol) ([4]; 23 °C, pH 2.4, 2 hr): 41 g/L
Methyl Ester (% by weight of product) ([4]; 23 °C, pH 2.4, 3 hr): 9.7 % by weight of product
Natamycin (concentration in methanol) ([4]; 23 °C, pH 2.4, 3 hr): 38 g/L
Methyl Ester (% by weight of product) ([4]; 23 °C, pH 3.2, 0 hr): 0 % by weight of product
Natamycin (concentration in methanol) ([4]; 23 °C, pH 3.2, 0 hr): 38 g/L
Methyl Ester (% by weight of product) ([4]; 23 °C, pH 3.2, 1 hr): 2.3 % by weight of product
Natamycin (concentration in methanol) ([4]; 23 °C, pH 3.2, 1 hr): 38 g/L
Methyl Ester (% by weight of product) ([4]; 23 °C, pH 3.2, 2 hr): 3.9 % by weight of product
Natamycin (concentration in methanol) ([4]; 23 °C, pH 3.2, 2 hr): 37 g/L
Methyl Ester (% by weight of product) ([4]; 23 °C, pH 3.2, 4 hr): 7.4 % by weight of product
Natamycin (concentration in methanol) ([4]; 23 °C, pH 3.2, 4 hr): 34 g/L
Methyl Ester (% by weight of product) ([4]; 23 °C, pH 3.2, 6 hr): 9.2 % by weight of product
Natamycin (concentration in methanol) ([4]; 23 °C, pH 3.2, 6 hr): 32 g/L
Methyl Ester (% by weight of product) ([4]; 23 °C, pH 3.2, 16 hr): 14 % by weight of product
Natamycin (concentration in methanol) ([4]; 23 °C, pH 3.2, 16 hr): 23 g/L
Methyl Ester (% by weight of product) ([4]; 23 °C, pH 4.0, 0 hr): 0 % by weight of product
Natamycin (concentration in methanol) ([4]; 23 °C, pH 4.0, 0 hr): 41 g/L
Methyl Ester (% by weight of product) ([4]; 23 °C, pH 4.0, 2 hr): 2.3 % by weight of product
Natamycin (concentration in methanol) ([4]; 23 °C, pH 4.0, 2 hr): 40 g/L
Methyl Ester (% by weight of product) ([4]; 23 °C, pH 4.0, 4 hr): 3.7 % by weight of product
Natamycin (concentration in methanol) ([4]; 23 °C, pH 4.0, 4 hr): 39 g/L
Compound: C[C@@H]1C/C=C/C=C/C=C/C=C/[C@H](O[C@@H]2O[C@H](C)[C@@H](O)[C@H](N)[C@@H]2O)C[C@@H]2O[C@](O)(C[C@@H](O)C[C@H]3O[C@@H]3/C=C/C(=O)O1)C[C@H](O)[C@H]2C(=O)O [Natamycin, natamycin]
